The source of these data is patent publication US9096593B2, “Compounds and methods for kinase modulation, and indications therefor” (Plexxikon Inc., priority 2009, dated 2015).

In one experiment the target is BCR-FMS/BaF3 cells (Homo sapiens, UniProt P07333). In words: BCR-FMS/BaF3 cell proliferation assay (ATPlite). It is filed as cell-based. Put shortly:
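BCR-FMS/BaF3 cells at 2×10^5 cells/mL in growth media with 1 mg/mL G418, without WEHI/IL-3, treated with 8-point 1:3 compound titrations (top 10 μM final) for 3 days at 37 °C, 5% CO2. Cell number by ATPlite luminescence; IC50 from signal versus concentration.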

Another experiment addresses BCR-KIT/BaF3 cells (Homo sapiens, UniProt P10721). The experiment can be described thus: BCR-KIT/BaF3 cell proliferation assay (ATPlite). It is filed as cell-based. Particulars: read-out: BCR/BaF3 (IC50 μM) Kit. Put shortly:
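BCR-KIT/BaF3 cells plated at 10,000/well in G418-containing medium without IL-3/WEHI; MV-4-11 at 25,000/well in medium with 10% FBS. Compound given as 8-point 1:3 titration, top 10 μM final, 3 days at 37 °C. Viability read as ATPlite luminescence; IC50 from concentration curve.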
A general note: ATP-based viability assays read luminescence as a measure of living cells.

[1] abbreviates: Kit IC50/Fms IC50, BCR-KIT/BaF3 vs BCR-FMS/BaF3 cells.
The mark [2] stands for this setting: read-out: BCR/BaF3 (IC50 μM) Fms; BCR-FMS/BaF3 cells.
Setting [3] is: BCR-FMS/BaF3 cells; read-out: BCR/BaF3 (IC50 μM) Fms.

Read-outs that look alike come from different tables or passages of the source. A value given as a limit tells only on which side of the number the result lay.

BCR-KIT/BaF3 cells, sequence (P10721 26-976 limits assumed, change not shown): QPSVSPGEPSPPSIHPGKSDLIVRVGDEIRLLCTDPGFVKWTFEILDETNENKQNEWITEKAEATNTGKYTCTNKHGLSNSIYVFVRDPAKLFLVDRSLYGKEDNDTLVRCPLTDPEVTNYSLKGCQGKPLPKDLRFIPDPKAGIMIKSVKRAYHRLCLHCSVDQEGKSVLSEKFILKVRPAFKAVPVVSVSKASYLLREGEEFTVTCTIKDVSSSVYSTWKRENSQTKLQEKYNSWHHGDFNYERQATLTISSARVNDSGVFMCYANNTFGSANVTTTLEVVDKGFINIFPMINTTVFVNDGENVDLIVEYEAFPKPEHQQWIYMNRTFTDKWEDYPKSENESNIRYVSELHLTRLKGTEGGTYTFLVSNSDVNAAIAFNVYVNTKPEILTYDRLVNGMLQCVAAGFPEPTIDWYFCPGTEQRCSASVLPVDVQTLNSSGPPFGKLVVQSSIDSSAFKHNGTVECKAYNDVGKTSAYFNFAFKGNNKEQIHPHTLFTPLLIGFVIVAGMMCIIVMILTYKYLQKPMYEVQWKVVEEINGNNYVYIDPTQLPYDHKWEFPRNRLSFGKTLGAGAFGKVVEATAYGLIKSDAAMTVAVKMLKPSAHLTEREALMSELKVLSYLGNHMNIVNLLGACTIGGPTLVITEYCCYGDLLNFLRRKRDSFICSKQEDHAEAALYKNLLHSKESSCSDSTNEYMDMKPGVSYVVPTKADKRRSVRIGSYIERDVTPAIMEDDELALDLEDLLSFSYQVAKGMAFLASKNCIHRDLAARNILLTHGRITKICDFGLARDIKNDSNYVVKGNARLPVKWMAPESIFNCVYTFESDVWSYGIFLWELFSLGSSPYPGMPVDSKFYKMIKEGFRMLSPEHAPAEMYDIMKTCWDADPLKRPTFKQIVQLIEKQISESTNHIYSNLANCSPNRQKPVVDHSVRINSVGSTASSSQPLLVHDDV
BCR-FMS/BaF3 cells, sequence (P07333 20-972 limits assumed, change not shown): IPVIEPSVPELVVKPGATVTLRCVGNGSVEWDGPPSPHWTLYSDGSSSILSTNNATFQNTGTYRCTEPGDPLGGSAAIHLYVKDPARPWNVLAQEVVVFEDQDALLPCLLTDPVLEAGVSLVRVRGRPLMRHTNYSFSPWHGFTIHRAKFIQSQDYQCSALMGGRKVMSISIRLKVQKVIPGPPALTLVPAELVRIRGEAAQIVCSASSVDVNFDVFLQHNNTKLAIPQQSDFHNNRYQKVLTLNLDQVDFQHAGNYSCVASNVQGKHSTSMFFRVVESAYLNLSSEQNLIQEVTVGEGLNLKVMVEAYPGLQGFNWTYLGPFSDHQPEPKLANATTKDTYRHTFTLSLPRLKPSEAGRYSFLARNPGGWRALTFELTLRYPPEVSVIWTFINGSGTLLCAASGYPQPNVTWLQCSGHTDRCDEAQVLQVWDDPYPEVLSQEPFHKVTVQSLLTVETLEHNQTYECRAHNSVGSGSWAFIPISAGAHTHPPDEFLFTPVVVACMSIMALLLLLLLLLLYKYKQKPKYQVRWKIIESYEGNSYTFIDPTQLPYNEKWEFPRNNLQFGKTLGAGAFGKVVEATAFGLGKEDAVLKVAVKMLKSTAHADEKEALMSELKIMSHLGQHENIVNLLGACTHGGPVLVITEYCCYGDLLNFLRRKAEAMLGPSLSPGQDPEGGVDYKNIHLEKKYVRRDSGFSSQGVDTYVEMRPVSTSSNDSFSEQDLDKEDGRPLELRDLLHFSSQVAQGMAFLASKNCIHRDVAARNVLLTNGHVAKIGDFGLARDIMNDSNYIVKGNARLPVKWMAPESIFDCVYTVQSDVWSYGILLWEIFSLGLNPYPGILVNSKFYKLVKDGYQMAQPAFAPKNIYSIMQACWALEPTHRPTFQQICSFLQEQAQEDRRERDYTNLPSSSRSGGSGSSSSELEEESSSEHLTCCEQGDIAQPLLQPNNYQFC

Take `COc1ccc(CNc2ncc(Cc3c[nH]c4ncc(C)cc34)cn2)cn1` [Compound P-2057, (6-Methoxy-pyridin-3-ylmethyl)-[5-(5-methyl-1H-pyrrolo[2,3-b]pyridin-3-ylmethyl)-pyrimidin-2-yl]-amine]: on BCR-FMS/BaF3 cells (setting [1]), the “BCR/BaF3 selectivity (Kit IC50/Fms IC50)” value is on record as above 20. Further, the IC50 at BCR-FMS/BaF3 cells (setting [2]) was below 0.1 µM; on BCR-FMS/BaF3 cells (read-out: Cell based (IC50 μM) BCR/BaF3 (Fms); BCR-FMS/BaF3 cells, 3 days) it was below 0.1 µM; at BCR-KIT/BaF3 cells it was above 0.1 µM.
For the molecule `COc1ncc(F)cc1CNc1ncc(Cc2c[nH]c3ncc(C)cc23)cn1` [Compound P-2061, (5-Fluoro-2-methoxy-pyridin-3-ylmethyl)-[5-(5-methyl-1H-pyrrolo[2,3-b]pyridin-3-ylmethyl)-pyrimidin-2-yl]-amine], the “BCR/BaF3 selectivity (Kit IC50/Fms IC50)” value at BCR-FMS/BaF3 cells (setting [1]) is above 20. Further, the IC50 on BCR-FMS/BaF3 cells (setting [2]) is below 0.1 µM; on BCR-KIT/BaF3 cells, above 0.1 µM.
On to `Cc1cnc2[nH]cc(Cc3ccc(NCc4cnccc4C(F)(F)F)nc3F)c2c1` [Compound P-2062, [6-Fluoro-5-(5-methyl-1H-pyrrolo[2,3-b]pyridin-3-ylmethyl)-pyridin-2-yl]-(4-trifluoromethyl-pyridin-3-ylmethyl)-amine], for which the “BCR/BaF3 selectivity (Kit IC50/Fms IC50)” value on BCR-FMS/BaF3 cells (setting [1]) is above 20. Moreover, the IC50 at BCR-FMS/BaF3 cells (setting [2]) is below 0.1 µM; at BCR-KIT/BaF3 cells, above 0.1 µM.
On to `FC(F)(F)c1ccncc1CNc1ccc(Cc2c[nH]c3ncc(Cl)cc23)cn1` [Compound P-2063, [5-(5-Chloro-1H-pyrrolo[2,3-b]pyridin-3-ylmethyl)-pyridin-2-yl]-(4-trifluoromethyl-pyridin-3-ylmethyl)-amine], for which, on BCR-FMS/BaF3 cells (setting [1]), the “BCR/BaF3 selectivity (Kit IC50/Fms IC50)” value is given as above 20. The IC50 at BCR-FMS/BaF3 cells (setting [2]) was below 0.1 µM; at BCR-KIT/BaF3 cells, above 0.1 µM.
For `COc1ncc(F)cc1CNc1ncc(Cc2c[nH]c3ncc(Cl)cc23)cn1` [Compound P-2064, [5-(5-Chloro-1H-pyrrolo[2,3-b]pyridin-3-ylmethyl)-pyrimidin-2-yl]-(5-fluoro-2-methoxy-pyridin-3-ylmethyl)-amine], at BCR-FMS/BaF3 cells (setting [1]), the “BCR/BaF3 selectivity (Kit IC50/Fms IC50)” value was above 20. In addition, the IC50 was below 0.1 µM on BCR-FMS/BaF3 cells (setting [2]) and above 0.1 µM at BCR-KIT/BaF3 cells.
Consider `Cc1cnc2[nH]cc(Cc3ccc(NCc4cnccc4C(F)(F)F)nc3)c2c1` [Compound P-2070, [5-(5-Methyl-1H-pyrrolo[2,3-b]pyridin-3-ylmethyl)-pyridin-2-yl]-(4-trifluoromethyl-pyridin-3-ylmethyl)-amine], for which the figures for the IC50 on BCR-FMS/BaF3 cells (setting [3]) and on BCR-KIT/BaF3 cells were below 0.1 µM and above 0.1 µM, respectively. For the same molecule, the “BCR/BaF3 selectivity (Kit IC50/Fms IC50)” value at BCR-FMS/BaF3 cells (setting [1]) is given as above 20.
Turning to `COc1cc(CNc2ccc(Cc3c[nH]c4ncc(C)cc34)c(F)n2)c(F)cn1` [Compound P-2071, (5-Fluoro-2-methoxy-pyridin-4-ylmethyl)-[6-fluoro-5-(5-methyl-1H-pyrrolo[2,3-b]pyridin-3-ylmethyl)-pyridin-2-yl]-amine], the “BCR/BaF3 selectivity (Kit IC50/Fms IC50)” value on BCR-FMS/BaF3 cells (setting [1]) is above 20. Also, the IC50 on BCR-FMS/BaF3 cells (setting [2]) and on BCR-KIT/BaF3 cells was above 0.1 µM in each case.
Consider `COc1ncc(CNc2ncc(Cc3c[nH]c4ncc(C)cc34)cn2)cc1F` [Compound P-2073, (5-Fluoro-6-methoxy-pyridin-3-ylmethyl)-[5-(5-methyl-1H-pyrrolo[2,3-b]pyridin-3-ylmethyl)-pyrimidin-2-yl]-amine], for which the “BCR/BaF3 selectivity (Kit IC50/Fms IC50)” value on BCR-FMS/BaF3 cells (setting [1]) was above 20. In addition, the values for the IC50 on BCR-FMS/BaF3 cells (setting [2]) and at BCR-KIT/BaF3 cells were below 0.1 µM and above 0.1 µM, respectively.
For the molecule `Cc1cnc2[nH]cc(Cc3cnc(NCc4ccc(Cl)nc4)nc3)c2c1` [Compound P-2078, (6-Chloro-pyridin-3-ylmethyl)-[5-(5-methyl-1H-pyrrolo[2,3-b]pyridin-3-ylmethyl)-pyrimidin-2-yl]-amine], on BCR-FMS/BaF3 cells (setting [1]), the “BCR/BaF3 selectivity (Kit IC50/Fms IC50)” value is above 20. In addition, the values for the IC50 at BCR-FMS/BaF3 cells (setting [2]) and at BCR-KIT/BaF3 cells were below 0.1 µM and above 0.1 µM, respectively.
Turning to `Cc1cnc2[nH]cc(Cc3cnc(NCc4cccc(C)n4)nc3)c2c1` [Compound P-2079, (6-Methyl-pyridin-2-ylmethyl)-[5-(5-methyl-1H-pyrrolo[2,3-b]pyridin-3-ylmethyl)-pyrimidin-2-yl]-amine], the “BCR/BaF3 selectivity (Kit IC50/Fms IC50)” value at BCR-FMS/BaF3 cells (setting [1]) is given as below 20. In addition, the results for the IC50 at BCR-FMS/BaF3 cells (setting [2]) and at BCR-KIT/BaF3 cells were below 0.1 µM and above 0.1 µM, respectively.
Taken in the same sequence, the figures for `Cc1cnc2[nH]cc(Cc3cnc(NCc4cccc(N5CCOCC5)n4)nc3)c2c1` [Compound P-2081, [5-(5-Methyl-1H-pyrrolo[2,3-b]pyridin-3-ylmethyl)-pyrimidin-2-yl]-(6-morpholin-4-yl-pyridin-2-ylmethyl)-amine] were below 20, above 0.1 µM and above 0.1 µM.
`Cc1cnc2[nH]cc(Cc3cnc(NCc4cccc(N5CCCC5)n4)nc3)c2c1` [Compound P-2082, [5-(5-Methyl-1H-pyrrolo[2,3-b]pyridin-3-ylmethyl)-pyrimidin-2-yl]-(6-pyrrolidin-1-yl-pyridin-2-ylmethyl)-amine]: the “BCR/BaF3 selectivity (Kit IC50/Fms IC50)” value at BCR-FMS/BaF3 cells (setting [1]) is below 20. In addition, the IC50 on BCR-FMS/BaF3 cells (setting [2]) was below 0.1 µM; on BCR-KIT/BaF3 cells, above 0.1 µM.
For `Cc1cnc2[nH]cc(Cc3ccc(NCc4ccc(Cl)nc4)nc3F)c2c1` [Compound P-2088, (6-Chloro-pyridin-3-ylmethyl)-[6-fluoro-5-(5-methyl-1H-pyrrolo[2,3-b]pyridin-3-ylmethyl)-pyridin-2-yl]-amine], the “BCR/BaF3 selectivity (Kit IC50/Fms IC50)” value at BCR-FMS/BaF3 cells (setting [1]) is listed as above 20. The IC50 at BCR-FMS/BaF3 cells (setting [2]) was below 0.1 µM; at BCR-KIT/BaF3 cells it was above 0.1 µM.
Regarding `COc1ccc(CNc2ccc(Cc3c[nH]c4ncc(C)cc34)c(F)n2)c(OC)n1` [Compound P-2097, (2,6-Dimethoxy-pyridin-3-ylmethyl)-[6-fluoro-5-(5-methyl-1H-pyrrolo[2,3-b]pyridin-3-ylmethyl)-pyridin-2-yl]-amine], the “BCR/BaF3 selectivity (Kit IC50/Fms IC50)” value on BCR-FMS/BaF3 cells (setting [1]) was above 20. The IC50 at BCR-FMS/BaF3 cells (setting [2]) is below 0.1 µM; on BCR-KIT/BaF3 cells it was above 0.1 µM.
As for `Cc1cnc2[nH]cc(Cc3ccc(NCc4cccnc4F)nc3F)c2c1` [Compound P-2103, [6-Fluoro-5-(5-methyl-1H-pyrrolo[2,3-b]pyridin-3-ylmethyl)-pyridin-2-yl]-(2-fluoro-pyridin-3-ylmethyl)-amine], the “BCR/BaF3 selectivity (Kit IC50/Fms IC50)” value on BCR-FMS/BaF3 cells (setting [1]) is listed as below 20. The IC50 at BCR-FMS/BaF3 cells (setting [2]) was below 0.1 µM; at BCR-KIT/BaF3 cells, above 0.1 µM.
Regarding `Cc1cnc2[nH]cc(Cc3ccc(NCc4ccnc(F)c4)nc3F)c2c1` [Compound P-2118, [6-Fluoro-5-(5-methyl-1H-pyrrolo[2,3-b]pyridin-3-ylmethyl)-pyridin-2-yl]-(2-fluoro-pyridin-4-ylmethyl)-amine], at BCR-FMS/BaF3 cells (setting [1]), the “BCR/BaF3 selectivity (Kit IC50/Fms IC50)” value is above 20. The IC50 on BCR-FMS/BaF3 cells (setting [2]) is below 0.1 µM; at BCR-KIT/BaF3 cells, above 0.1 µM.
Take `Cc1ccc(CNc2ccc(Cc3c[nH]c4ncc(C)cc34)c(F)n2)nc1` [Compound P-2131, [6-Fluoro-5-(5-methyl-1H-pyrrolo[2,3-b]pyridin-3-ylmethyl)-pyridin-2-yl]-(5-methyl-pyridin-2-ylmethyl)-amine]: the figures for the IC50 on BCR-FMS/BaF3 cells (setting [3]) and on BCR-KIT/BaF3 cells were below 0.1 µM and above 0.1 µM, respectively. Also, the “BCR/BaF3 selectivity (Kit IC50/Fms IC50)” value on BCR-FMS/BaF3 cells (setting [1]) was below 20.
Take `COc1ncccc1CNc1ncc(Cc2c[nH]c3ncc(C)cc23)cn1` [Compound P-2139, (2-Methoxy-pyridin-3-ylmethyl)-[5-(5-methyl-1H-pyrrolo[2,3-b]pyridin-3-ylmethyl)-pyrimidin-2-yl]-amine]: the “BCR/BaF3 selectivity (Kit IC50/Fms IC50)” value on BCR-FMS/BaF3 cells (setting [1]) is reported as below 20. In addition, the IC50 on BCR-FMS/BaF3 cells (setting [2]) and at BCR-KIT/BaF3 cells was above 0.1 µM in each case.
As for `Cc1cnc2[nH]cc(Cc3cnc(NCc4ccc(C(F)(F)F)nc4)c(F)c3)c2c1` [Compound P-2146, [3-Fluoro-5-(5-methyl-1H-pyrrolo[2,3-b]pyridin-3-ylmethyl)-pyridin-2-yl]-(6-trifluoromethyl-pyridin-3-ylmethyl)-amine], on BCR-FMS/BaF3 cells (setting [1]), the “BCR/BaF3 selectivity (Kit IC50/Fms IC50)” value was below 20. Further, the IC50 on BCR-FMS/BaF3 cells (setting [2]) was below 0.1 µM; on BCR-KIT/BaF3 cells, above 0.1 µM.
As to `COc1cnc2[nH]cc(Cc3cnc(NCc4ccc(C(F)(F)F)nc4)c(F)c3)c2c1` [Compound P-2147, [3-Fluoro-5-(5-methoxy-1H-pyrrolo[2,3-b]pyridin-3-ylmethyl)-pyridin-2-yl]-(6-trifluoromethyl-pyridin-3-ylmethyl)-amine], the “BCR/BaF3 selectivity (Kit IC50/Fms IC50)” value at BCR-FMS/BaF3 cells (setting [1]) is recorded as below 20. For the same molecule, the IC50 on BCR-FMS/BaF3 cells (setting [2]) and on BCR-KIT/BaF3 cells was below 0.1 µM throughout.
`Cc1cnc2[nH]cc(Cc3cnc(NCc4cccnc4OC4CCCC4)nc3)c2c1` [Compound P-2148, (2-Cyclopentyloxy-pyridin-3-ylmethyl)-[5-(5-methyl-1H-pyrrolo[2,3-b]pyridin-3-ylmethyl)-pyrimidin-2-yl]-amine]: the IC50 at BCR-FMS/BaF3 cells (setting [3]) is below 0.1 µM; on BCR-KIT/BaF3 cells it was above 0.1 µM. At BCR-FMS/BaF3 cells (setting [1]), the “BCR/BaF3 selectivity (Kit IC50/Fms IC50)” value is recorded as below 20.
As to `COc1ccc(CNc2ncc(Cc3c[nH]c4ncc(Cl)cc34)s2)cn1` [Compound P-2154, [5-(5-Chloro-1H-pyrrolo[2,3-b]pyridin-3-ylmethyl)-thiazol-2-yl]-(6-methoxy-pyridin-3-ylmethyl)-amine], the results for the IC50 on BCR-FMS/BaF3 cells (setting [3]) and at BCR-KIT/BaF3 cells were below 0.1 µM and above 0.1 µM, respectively. Also, at BCR-FMS/BaF3 cells (setting [1]), the “BCR/BaF3 selectivity (Kit IC50/Fms IC50)” value is below 20.
Take `Cn1cc(F)cc(CNc2ncc(Cc3c[nH]c4ncc(Cl)cc34)cn2)c1=O` [Compound P-2157, 3-{[5-(5-Chloro-1H-pyrrolo[2,3-b]pyridin-3-ylmethyl)-pyrimidin-2-ylamino]-methyl}-5-fluoro-1-methyl-1H-pyridin-2-one]: the “BCR/BaF3 selectivity (Kit IC50/Fms IC50)” value on BCR-FMS/BaF3 cells (setting [1]) is above 20. In addition, the figures for the IC50 on BCR-FMS/BaF3 cells (setting [2]) and on BCR-KIT/BaF3 cells were below 0.1 µM and above 0.1 µM, respectively.
